In the supplement of paper PMC10307832 one finds relative viability data, which are given here for one cell line.

Common to all, as to experiment: relative viability (nuclei count vs DMSO), 5 days (fraction); higher = more cells survive
Compound in one experiment: C[C@]1(c2nc3c(C(N)=O)cccc3[nH]2)CCCN1 [Veliparib]
The method in brief: (§1)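 MetaXpress counted nuclei in 4× images of lung cancer cell lines that had been fixed, permeabilised and Hoechst-stained in one step. Before that, cells in 1536-well plates were kept overnight at 37 °C, pinned with five √10-spaced library-drug doses on vehicle-anchored plates, and cultured 5 days without medium change. Viability takes treated-well nuclei over vehicle-well nuclei and uses the median across plates. Plates were accepted only at control CV below 25% and at least one doubling.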

Compound in experiment [1]: COC1=CC=C(C=C1)CN2C=CC3=C2C=C(C=C3)C(=O)NO
In short, it runs like this:
as §1

Compound in experiment [2]: COC1=CC=C(C=C1)CN2C=CC3=C2C=C(C=C3)C(=O)NO + CC(=O)c1c(C)c2cnc(Nc3ccc(N4CCNCC4)cn3)nc2n(C2CCCC2)c1=O [Palbociclib] (partner 0.5 µM)
The method in brief: (§2)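 One day after seeding in 1536-well plates, lung cancer cell lines were dosed by pin tool. Dosing was either single-drug or a fixed anchor-drug dose plus five library-drug doses (not always all listed) in √10 steps. After 5 days, nuclei were stained in one fix-and-stain step and counted on 4× images, and relative viability is the nuclei count of treated wells over that of vehicle wells, given as the median of duplicate plates.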

Compound in experiment [3]: COC1=CC=C(C=C1)CN2C=CC3=C2C=C(C=C3)C(=O)NO + Cc1cc(Nc2cc(N3CCN(C)CC3)nc(Sc3ccc(NC(=O)C4CC4)cc3)n2)n[nH]1 [Tozasertib] (partner 0.1 µM)
The method in brief:
as §2

Take SW 1573: the relative viability came out at 0.857 with Veliparib (0.02 µM); 0.978 with Veliparib (0.06325 µM); 0.917 in the experiment with Veliparib (0.2 µM); 0.885 with Veliparib (0.6325 µM); 0.922 with Veliparib (2 µM); 1.05 in experiment [1] (0.253 µM). Also, the relative viability in experiment [1] (0.8 µM) is 1.09; in experiment [1] (2.53 µM), 1.06; in experiment [1] (8 µM) it was 0.759; in experiment [2] (first compound 0.253 µM), 0.397; in experiment [2] (first compound 0.8 µM), 0.474; in experiment [2] (first compound 2.53 µM), 0.392. Further, the relative viability in experiment [2] (first compound 8 µM) amounted to 0.326; in experiment [3] (first compound 0.253 µM) it was 0.233; in experiment [3] (first compound 0.8 µM), 0.188; in experiment [3] (first compound 2.53 µM) it was 0.206; in experiment [3] (first compound 8 µM) it was 0.157.
